8 compounds from ChEMBL document CHEMBL1141126, “Improving the antiviral efficacy and selectivity of HIV-1 reverse transcriptase inhibitor TSAO-T by the introduction of functional groups at the N-3 position” (J Med Chem, 2005) can be followed below.

For experiment [1], the target named is Human immunodeficiency virus type 1 reverse transcriptase (Human immunodeficiency virus 1, UniProt Q72547). Put plainly: Inhibitory concentration required to inhibit recombinant HIV-1 reverse transcriptase.
In experiment [2] the test system is CCRF-CEM. Put plainly: Cytostatic concentration required to inhibit cell proliferation in human CEM cell line; Range 10-50. It is filed as functional.
The test system of experiment [3] is CCRF-CEM. Put plainly: Ratio of cytostatic concentration to effective concentration in human CEM cell line; Range 1000-5000. It is filed as functional.
The test system of experiment [4] is Human immunodeficiency virus 1. Put plainly: Effective concentration required to inhibit HIV-1 induced cytopathicity in human CEM cell line. It is filed as functional, organism-based. The note with it: Human immunodeficiency virus 1, CCRF-CEM.
In experiment [5] the test system is Human immunodeficiency virus 2. Put plainly: Effective concentration required to inhibit HIV-2 induced cytopathicity in human CEM cell line. Particulars: Human immunodeficiency virus 2, CCRF-CEM. It is filed as functional, organism-based.
The subject of experiment [6] is Human immunodeficiency virus 2. Put plainly: Effective concentration required to inhibit HIV-2 induced cytopathicity in human MT-4 cell line. It is filed as functional, organism-based. Particulars: Human immunodeficiency virus 2, MT4. For orientation: Damage to the host cells serves as the signal in cytopathic effect assays.
The test system of experiment [7] is Human immunodeficiency virus 1. Put plainly: Effective concentration required to inhibit HIV-1/138K induced cytopathicity in human CEM cell line. It is filed as functional, organism-based. The note with it: Human immunodeficiency virus 1, CCRF-CEM.
For experiment [8], the system named is CCRF-CEM. Put plainly: Cytostatic concentration required to inhibit cell proliferation in human CEM cell line. It is filed as functional.
For experiment [9], the system named is CCRF-CEM. Put plainly: Ratio of cytostatic concentration to effective concentration in human CEM cell line. It is filed as functional.
The test system of experiment [10] is Human immunodeficiency virus 1. Put plainly: Effective concentration required to inhibit HIV-1 induced cytopathicity in human MT-4 cell line. It is filed as functional, organism-based. The note with it: Human immunodeficiency virus 1, MT4.

A value given as a limit tells only on which side of the number the result lay.

The term IC50 denotes the concentration that gives 50% inhibition. One may read the CC50 as the concentration that lowers cell viability or growth by half. Read a high CC50 as lower toxicity to the cells. As a reminder, the EC50 is the concentration giving half of the maximal effect. A lower EC50 goes with greater potency. As for `CNC(=O)CCCCn1c(=O)c(C)cn([C@@H]2O[C@H](CO[Si](C)(C)C(C)(C)C)[C@@]3(OS(=O)(=O)C=C3N)[C@H]2O[Si](C)(C)C(C)(C)C)c1=O`, the IC50 in experiment [1] is 0.56 µM. In the experiment with CCRF-CEM [2], this compound returned a CC50 of 50 µM. In the experiment with CCRF-CEM [3], the SI came out at 5000. Also, the EC50 was 10 nM in [4], greater than 10 µM in experiment [5], greater than 10 µM in experiment [6] and no less than 2 µM in [7].
For the compound `CNC(=O)CCCCCn1c(=O)c(C)cn([C@@H]2O[C@H](CO[Si](C)(C)C(C)(C)C)[C@@]3(OS(=O)(=O)C=C3N)[C@H]2O[Si](C)(C)C(C)(C)C)c1=O`, the IC50 in experiment [1] was found to be 2.4 µM. This compound came in with a CC50 in the experiment with CCRF-CEM [8] of 22.1 µM. Moreover, the SI with CCRF-CEM [9] is 442. For the same compound, the EC50 is 50 nM in experiment [4]; greater than 125 µM in experiment [5]; 30 nM in experiment [10]; greater than 125 µM in experiment [6]; 10 µM in experiment [7].
Take `COC(=O)/C=C/Cn1c(=O)c(C)cn([C@@H]2O[C@H](CO[Si](C)(C)C(C)(C)C)[C@@]3(OS(=O)(=O)C=C3N)[C@H]2O[Si](C)(C)C(C)(C)C)c1=O`: the IC50 in experiment [1] was found to be 30 µM. In the experiment with CCRF-CEM [8], this compound returned a CC50 of 142 µM. Further, the SI in the experiment with CCRF-CEM [9] came to 2367. Further, the EC50 is 60 nM in experiment [4]; greater than 10 µM in experiment [5]; 130 nM in experiment [10]; greater than 250 µM in experiment [6]; 5.5 µM in experiment [7].
Take `Cc1cn([C@@H]2O[C@H](CO[Si](C)(C)C(C)(C)C)[C@@]3(OS(=O)(=O)C=C3N)[C@H]2O[Si](C)(C)C(C)(C)C)c(=O)n(C/C=C/CO)c1=O`: the IC50 in [1] came out at 4.5 µM. For the same compound, the midpoint of cytotoxicity with CCRF-CEM [8], the CC50, lay at 4.41 µM. Besides, the SI in the experiment with CCRF-CEM [9] was 220. The concentration giving a half-maximal response (EC50) is 20 nM in experiment [4]; greater than 2 µM in experiment [5]; 70 nM in [10]; greater than 2 µM in experiment [6]; 4.5 µM in [7].
Turning to `Cc1cn([C@@H]2O[C@H](CO[Si](C)(C)C(C)(C)C)[C@@]3(OS(=O)(=O)C=C3N)[C@H]2O[Si](C)(C)C(C)(C)C)c(=O)n(CCCCO)c1=O`, the IC50 in experiment [1] was 13 µM. For the same compound, half-maximal cytotoxicity with CCRF-CEM [8] (CC50) was put at 20.5 µM. In the experiment on CCRF-CEM [9], the SI turned out to be 227. In addition, the EC50 in experiment [4] was 90 nM; in [5] it was greater than 10 µM; in [10], 170 nM; in experiment [6], greater than 10 µM; in [7], no less than 10 µM.
Turning to `Cc1cn([C@@H]2O[C@H](CO[Si](C)(C)C(C)(C)C)[C@@]3(OS(=O)(=O)C=C3N)[C@H]2O[Si](C)(C)C(C)(C)C)c(=O)n(CCCN2C(=O)c3ccccc3C2=O)c1=O`, the 50% inhibitory concentration (IC50) in [1] was greater than 500 µM. In the experiment with CCRF-CEM [8], this compound had a 50% cytotoxic concentration (CC50) greater than 250 µM. Further, in the experiment on CCRF-CEM [9], the SI is on record as greater than 2272. Moreover, the concentration giving a half-maximal response (EC50) in experiment [4] was 110 nM; in experiment [5], greater than 250 µM; in experiment [10], 290 nM; in [6], greater than 250 µM; in [7], greater than 250 µM.
As to `Cc1cn([C@@H]2O[C@H](CO[Si](C)(C)C(C)(C)C)[C@@]3(OS(=O)(=O)C=C3N)[C@H]2O[Si](C)(C)C(C)(C)C)c(=O)n(CCCNC(=O)OCc2ccccc2)c1=O`, the IC50 in [1] was greater than 500 µM. The same compound yielded a CC50 in the experiment on CCRF-CEM [8] of 229 µM. The SI in the experiment on CCRF-CEM [9] is 1526. Further, the EC50 in experiment [4] was 150 nM; in [5], greater than 50 µM; in experiment [10], 170 nM; in experiment [6] it was greater than 50 µM; in experiment [7], greater than 50 µM.
Take `CCCCOC(=O)CN(CCCn1c(=O)c(C)cn([C@@H]2O[C@H](CO[Si](C)(C)C(C)(C)C)[C@@]3(OS(=O)(=O)C=C3N)[C@H]2O[Si](C)(C)C(C)(C)C)c1=O)CC(=O)OCCCC`: the IC50 in [1] is greater than 500 µM. This compound also returned a CC50 in the experiment on CCRF-CEM [8] greater than 250 µM. Further, the SI with CCRF-CEM [9] is listed as 71. The EC50 was 3500 nM in [4]; greater than 250 µM in experiment [5]; 12800 nM in experiment [10]; greater than 250 µM in experiment [6]; greater than 250 µM in [7].
